Laboratory results reported in patent US7166622B2, “Substituted phenylsulfonamide inhibitors of beta amyloid production” (Wyeth, priority 2002, dated 2007).
Where “and” joins values, the source holds several entries; their conditions need not be identical. Identical values can stand only once. Like-named read-outs stand apart in the source and are kept apart here.

Key:
beta amyloid production = assay: Repressor Release Assay (RRA); type: cell-based; details: for fold induction at 10 µg/mL / fold induction at 20 µg/mL / fold induction at 3 µg/mL: read-out: APPI Fold Increase; for APPI % of Example #98: relative to Example 98; for fold induction at 20 µg/mL: Conc 20 μg/ml
Method: CHO-K1 cells were cultured in whole DMEM media (DMEM—High Glucose with 10% fetal bovine serum, 1% Non-essential Amino Acids, and 1% Penicillin-Streptomycin) at 37° C. with 5% CO2. Two million cells were plated into 10-cm dishes 24 hrs prior to transfection.
Transient transfections were completed as recommended by Gibco BRL using their Lipofectamine Plus system. First, 6 μg of pRSVO-luc and 6 μg of APP-lacI construct DNA were added to 460 μL Opti-Mem transfection media and incubated with 30 μL Plus reagent for 15 minutes. Then, a lipid mixture of 40 μL Lipofectamine reagent and 460 μL Opti-Mem transfection media was incubated with the DNA-Plus reagent mixture for 15 minutes. During the DNA-lipid incubation, the CHO-K1 cells were washed once and covered in 5.0 mL DMEM media without Penicillin-Streptomycin. The DNA-lipid preparation was then layered onto these cells and incubated at 37° C. overnight.
[…] transfected cells per well (100 μL total volume) were plated into sterile, opaque Packard 96-well Culture-Plates in clear DMEM whole media (DMEM—without phenol red) and incubated at 37° C. with 5% CO2 for 3-5 hours.
Compounds were diluted using two different protocols; one protocol was used for compounds supplied neat (weighed powder in vial) and the other protocol was used for compounds supplied in solution (20 mM in DMSO in 96-well plates). For both protocols, 25 mM Hepes and 25 mM Hepes/1% DMSO were prepared fresh to be used as diluent. The Hepes/DMSO was used as the diluent control on all experimental plates.
The following table depicts the steps for compound dilution (please note that the last step was the addition of compound to cells/media in tissue culture plate).
Because some compounds were present in 96-well format at 20 mM, the following represents the protocol for their dilution (note that an average molecular weight of these compounds was used to calculate these dilutions and as above, the last step was the addition of compound to cells/media in tissue culture plate).
Once the compounds were diluted, they were applied in duplicate on cells in tissue culture plates (prepared above). Cells were incubated with compound at 37° C. with 5% CO2 for an additional 36-48 hours.
Luciferase assays (LucLite reagent, Packard) were performed and were read on a Packard TopCount instrument. Media was removed from each 96-well plate and replaced with 100 μL PBS per well (with Mg^2+ and Ca^2+). An equal volume (100 μL) of the LucLite lysis/substrate buffer was added to each well and the plates were sealed and mixed in the dark on a rotary shaker for 15-30 minutes at room temperature. Luciferase readings were then taken on the TopCount instrument. Measurements were expressed as relative light units (RLU) and are calculated and analyzed in MS Excel as follows: […]

CHO-K1 cells = assay: Toxicity in RRA (loss of luciferase signal); details: toxicity = loss of signal (<0.75 fold increase)
Method: The beta amyloid inhibitory activity of the compounds of the present invention was determined using the Repressor Release Assay (RRA).
“Fold Increase” refers to the amount of luciferase activity (measured in relative light units) over diluent control. “SEM” refers to the standard error of the mean for fold increase.

[1] = Conc 10 μg/ml, luciferase activity over diluent control
[2] = Conc 3 μg/ml, luciferase activity over diluent control
[3] = luciferase activity over diluent control
[4] = luciferase activity (RLU) over diluent control
[5] = Conc 20 μg/ml, 1=non-toxic, 0=toxic

Structure (SMILES): CCCCCC(O)[C@@H](NS(=O)(=O)c1ccc(Br)cc1)[C@@H](C)CC (stereo partly drawn) [Example 147, 4-bromo-N-{(1S)-2-hydroxy-1-[(1S)-1-methylpropyl]heptyl}benzenesulfonamide]
- fold induction at 10 µg/mL (beta amyloid production; [1]): 1.94
- (%)APPI Toxicity (CHO-K1 cells; Conc 10 μg/ml): 1 (1=non-toxic)

Structure (SMILES): CC[C@H](C)[C@H](NS(=O)(=O)c1ccc(Cl)cc1)C(O)(CC(C)C)CC(C)C [Example 226, 4-chloro-N-{(1S)-2-hydroxy-2-isobutyl-4-methyl-1-[(1S)-1-methylpropyl]pentyl}benzenesulfonamide]
- fold induction at 10 µg/mL (beta amyloid production; [1]): 4.6
- (%)APPI Toxicity (CHO-K1 cells; Conc 10 μg/ml): 1 (1=non-toxic)

Structure (SMILES): CC[C@H](C)[C@H](NS(=O)(=O)c1ccc(Br)cc1)C(O)C1CCCC1 (stereo partly drawn) [Example 146, 4-bromo-N-1-{(1S,2S)-1-[cyclopentyl(hydroxy)methyl]-2-methylbutyl}benzenesulfonamide]
- APPI Fold Increase (beta amyloid production; [2]): 1.53 fold
- APPI % of Example #98 (beta amyloid production; Conc 3 μg/ml): 60.66%
- APPI Fold Increase (beta amyloid production; [1]): 4.26 fold and 2.33 fold
- APPI % of Example #98 (beta amyloid production; Conc 10 μg/ml): 166.6% and 92.64%
- (%)APPI Toxicity (CHO-K1 cells; Conc 3 μg/ml): 1 (1=non-toxic)
- (%)APPI Toxicity (CHO-K1 cells; Conc 10 μg/ml): 1 (1=non-toxic)

Structure (SMILES): CC[C@H](C)[C@H](NS(=O)(=O)c1cccc(Cl)c1)C(O)C=C(C)C (stereo partly drawn) [Example 197, 3-chloro-N-{(1S)-2-hydroxy-4-methyl-1-[(1S)-1-methylpropyl]-3-pentenyl}benzenesulfonamide]
- fold induction at 10 µg/mL (beta amyloid production; [1]): 1.54
- (%)APPI Toxicity (CHO-K1 cells; Conc 10 μg/ml): 1 (1=non-toxic)

Structure (SMILES): CC[C@H](C)[C@@H](CO)NS(=O)(=O)c1ccc(F)cc1 [Example 10, 4-fluoro-N-[(1S,2S)-1-(hydroxymethyl)-2-methylbutyl]benzenesulfonamide]
- fold induction at 20 µg/mL (beta amyloid production; [3]): 3.3
- (%)APPI Toxicity (CHO-K1 cells; Conc 20 μg/ml): 1 (1=non-toxic)

Structure (SMILES): CCCCCCC(O)[C@@H](NS(=O)(=O)c1ccccc1F)[C@@H](C)CC (stereo partly drawn) [Example 203, 2-fluoro-N-{(1S)-2-hydroxy-1-[(1S)-1-methylpropyl]octyl}benzenesulfonamide]
- fold induction at 10 µg/mL (beta amyloid production; [1]): 3.47
- (%)APPI Toxicity (CHO-K1 cells; Conc 10 μg/ml): 1 (1=non-toxic)

Structure (SMILES): CC[C@H](C)[C@H](NS(=O)(=O)c1cccc(Cl)c1)C(O)(c1ccc(OC)cc1)c1ccc(OC)cc1 [Example 258, 3-chloro-N-((1S,2S)-1-{hydroxy [bis(4-methoxyphenyl)]methyl}-2-methylbutyl)benzenesulfonamide]
- fold induction at 10 µg/mL (beta amyloid production; [1]): 1.72
- (%)APPI Toxicity (CHO-K1 cells; Conc 10 μg/ml): 1 (1=non-toxic)

Structure (SMILES): CC[C@H](C)[C@H](NS(=O)(=O)c1ccc(F)cc1)C(C)O (stereo partly drawn) [Example 126, 4-fluoro-N-[(1S,2S)-1-(1-hydroxyethyl)-2-methylbutyl]benzenesulfonamide]
- fold induction at 3 µg/mL (beta amyloid production; [2]): 1.54
- fold induction at 10 µg/mL (beta amyloid production; [1]): 1.52
- (%)APPI Toxicity (CHO-K1 cells; Conc 3 μg/ml): 1 (1=non-toxic)
- (%)APPI Toxicity (CHO-K1 cells; Conc 10 μg/ml): 1 (1=non-toxic)

Structure (SMILES): CC[C@H](C)[C@H](NS(=O)(=O)c1cccc(Cl)c1)C(O)C1CCCC1 (stereo partly drawn) [Example 186, 3-chloro-N-{(1S,2S)-1-[cyclopentyl(hydroxy)methyl]-2-methylbutyl}benzenesulfonamide]
- fold induction at 10 µg/mL (beta amyloid production; [1]): 3.86
- (%)APPI Toxicity (CHO-K1 cells; Conc 10 μg/ml): 1 (1=non-toxic)

Structure (SMILES): CCCCCC[C@@H](CC)[C@@H](CO)NS(=O)(=O)c1ccc(Br)cc1 [Example 75, 4-bromo-N-[(1S,2R)-2-ethyl-1-(hydroxymethyl)octyl]benzenesulfonamide]
- fold induction at 20 µg/mL (beta amyloid production; [4]): 4.8
- (%)APPI Toxicity (CHO-K1 cells; [5]): 1 (1=non-toxic)

Structure (SMILES): CC[C@@H](C)[C@H](CO)NS(=O)(=O)c1ccc(Br)cc1 [Example 33, 4-Bromo-N-[(1R,2R)-1-(hydroxymethyl)-2-methylbutyl]benzenesulfonamide]
- fold induction at 20 µg/mL (beta amyloid production; [3]): 3.9
- (%)APPI Toxicity (CHO-K1 cells; Conc 20 μg/ml): 1 (1=non-toxic)

Structure (SMILES): CC[C@H](C)[C@H](NS(=O)(=O)c1cccc(Cl)c1)C(O)(CC(C)C)CC(C)C [Example 252, 3-chloro-N-{(1S)-2-hydroxy-2-isobutyl-4-methyl-1-[(1S)-1-methylpropyl]pentyl}benzenesulfonamide]
- fold induction at 10 µg/mL (beta amyloid production; [1]): 1.8
- (%)APPI Toxicity (CHO-K1 cells; Conc 10 μg/ml): 1 (1=non-toxic)

Structure (SMILES): CC[C@H](C)[C@@H](CO)NS(=O)(=O)c1cccc(Br)c1 [Example 2, 3-bromo-N-[(1S,2S)-1-(hydroxymethyl)-2-methylbutyl]benzenesulfonamide]
- fold induction at 20 µg/mL (beta amyloid production; [3]): 2.8
- (%)APPI Toxicity (CHO-K1 cells; Conc 20 μg/ml): 1 (1=non-toxic)

Structure (SMILES): CC[C@@H](c1ccccc1)[C@@H](CO)NS(=O)(=O)c1ccc(Br)cc1 [Example 83, 4-bromo-N-[(1S,2S)-1-(hydroxymethyl)-2-phenylbutyl]benzenesulfonamide]
- fold induction at 20 µg/mL (beta amyloid production; [4]): 3.4
- (%)APPI Toxicity (CHO-K1 cells; [5]): 1 (1=non-toxic)

Structure (SMILES): CCCCCC(O)(CCCCC)[C@@H](NS(=O)(=O)c1cccc(Cl)c1)[C@@H](C)CC [Example 250, 3-chloro-N-{(1S)-2-hydroxy-1-[(1S)-1-methylpropyl]-2-pentylheptyl}benzenesulfonamide]
- fold induction at 10 µg/mL (beta amyloid production; [1]): 2.4
- (%)APPI Toxicity (CHO-K1 cells; Conc 10 μg/ml): 1 (1=non-toxic)

Structure (SMILES): C[C@@H](c1ccccc1)[C@@H](CO)NS(=O)(=O)c1ccc(Cl)cc1 [Example 63, 4-chloro-N-[(1S,2S)-1-(hydroxymethyl)-2-phenylpropyl]benzenesulfonamide]
- fold induction at 20 µg/mL (beta amyloid production; [4]): 2
- (%)APPI Toxicity (CHO-K1 cells; [5]): 1 (1=non-toxic)

Structure (SMILES): CC[C@H](C)[C@H](NS(=O)(=O)c1ccc(F)cc1)C(O)c1ccc(Cl)cc1 (stereo partly drawn) [Example 136, N-{(1S,2S)-1-[(4-chlorophenyl)(hydroxy)methyl]-2-methylbutyl}-4-fluorobenzenesulfonamide]
- fold induction at 10 µg/mL (beta amyloid production; [1]): 3.04
- (%)APPI Toxicity (CHO-K1 cells; Conc 10 μg/ml): 1 (1=non-toxic)

Structure (SMILES): CCC(O)[C@@H](NS(=O)(=O)c1ccc(Br)cc1)[C@@H](C)CC (stereo partly drawn) [Example 153, 4-bromo-N-{(1S)-2-hydroxy-1-[(1S)-1-methylpropyl]butyl}benzenesulfonamide]
- fold induction at 3 µg/mL (beta amyloid production; [2]): 2
- fold induction at 10 µg/mL (beta amyloid production; [1]): 4.77
- (%)APPI Toxicity (CHO-K1 cells; Conc 3 μg/ml): 1 (1=non-toxic)
- (%)APPI Toxicity (CHO-K1 cells; Conc 10 μg/ml): 1 (1=non-toxic)

Structure (SMILES): CCC(CC)[C@@H](CO)NS(=O)(=O)c1ccc(Cl)cc1 [Example 52, 4-chloro-N-[(1S)-2-ethyl-1-(hydroxymethyl)butyl]benzenesulfonamide]
- fold induction at 20 µg/mL (beta amyloid production; [4]): 6.2
- (%)APPI Toxicity (CHO-K1 cells; [5]): 1 (1=non-toxic)

Structure (SMILES): CCCCCCC(O)(CCCCCC)[C@@H](NS(=O)(=O)c1ccc(Cl)cc1)[C@@H](C)CC [Example 224, 4-chloro-N-{(1S)-2-hexyl-2-hydroxy-1-[(1S)-1-methylpropyl]octyl}benzenesulfonamide]
- fold induction at 10 µg/mL (beta amyloid production; [1]): 2.22
- (%)APPI Toxicity (CHO-K1 cells; Conc 10 μg/ml): 1 (1=non-toxic)

Structure (SMILES): CC[C@H](C)[C@H](NS(=O)(=O)c1ccc(Cl)cc1)C(C)O (stereo partly drawn) [Example 165, 4-Chloro-N-[(1S,2S)-1-(hydroxyethyl)-2-methylbutyl]benzenesulfonamide]
- fold induction at 10 µg/mL (beta amyloid production; [1]): 2.05
- (%)APPI Toxicity (CHO-K1 cells; Conc 10 μg/ml): 1 (1=non-toxic)

Structure (SMILES): CC[C@H](C)[C@@H](CO)NS(=O)(=O)c1ccc(Cl)c(Cl)c1 [Example 24, 3,4-dichloro-N-[(1S,2S)-1-(hydroxymethyl)-2-methylbutyl]benzenesulfonamide]
- fold induction at 20 µg/mL (beta amyloid production; [3]): 1.6
- (%)APPI Toxicity (CHO-K1 cells; Conc 20 μg/ml): 1 (1=non-toxic)

Structure (SMILES): O=S(=O)(N[C@H](CO)c1ccccc1)c1ccccc1F [Example 112, 2-fluoro-N-[(1S)-2-hydroxy-1-phenylethyl]benzene sulfonamide]
- fold induction at 20 µg/mL (beta amyloid production; [3]): 1.8
- (%)APPI Toxicity (CHO-K1 cells; Conc 20 μg/ml): 1 (1=non-toxic)

Structure (SMILES): CC[C@H](C)[C@@H](CO)NS(=O)(=O)c1ccc(F)cc1F [Example 9, 2,4-difluoro-N-[(1S,2S)-1-(hydroxymethyl)-2-methylbutyl]benzenesulfonamide]
- fold induction at 10 µg/mL (beta amyloid production; [1]): 2.2
- fold induction at 20 µg/mL (beta amyloid production; [3]): 1.8
- (%)APPI Toxicity (CHO-K1 cells; Conc 10 μg/ml): 1 (1=non-toxic)
- (%)APPI Toxicity (CHO-K1 cells; Conc 20 μg/ml): 1 (1=non-toxic)

Structure (SMILES): COc1ccc([C@@H](C)[C@@H](CO)NS(=O)(=O)c2ccc(Br)cc2)cc1 [Example 71, 4-bromo-N-[(1S,2R)-1-(hydroxymethyl)-2-(4-methoxyphenyl)propyl]benzenesulfonamide]
- fold induction at 20 µg/mL (beta amyloid production; [4]): 1.9
- (%)APPI Toxicity (CHO-K1 cells; [5]): 1 (1=non-toxic)

Structure (SMILES): O=S(=O)(NC1(CO)CCCCC1)c1ccc(Br)cc1 [Example 120, 4-Bromo-N-[1-(hydroxymethyl)-cyclohexyl]-benzenesulfonamide]
- fold induction at 20 µg/mL (beta amyloid production; [3]): 5
- (%)APPI Toxicity (CHO-K1 cells; Conc 20 μg/ml): 1 (1=non-toxic)
